In article PMC10053003, “Study on Pharmacokinetics and Metabolic Profiles of Novel Potential PLK-1 Inhibitors by UHPLC-MS/MS Combined with UHPLC-Q-Orbitrap/HRMS” (Molecules, 2023):
Where two headings read alike, the source gives them in different places.

Tests used:
[1] = Pharmacokinetics in rats after intravenous administration; assay type: in vivo; conditions: Sprague-Dawley, rat, plasma, i.v. 1 mg/kg
Description: The pharmacokinetic characteristics of 7a were then evaluated successfully with the validated UHPLC-MS/MS method. […] The AUC0–24h was about 517 and 3192 h × nmol/L at the doses of 5 and 30 mg/kg, respectively. The tmax was approximately 2 h, and t1/2 was 5 h. In the dose range of 5–30 mg/kg, the pharmacokinetics of 7a were almost linear. The mean plasma concentration-time curve of 7a after a single intravenous administration (1 mg/kg) and the major pharmacokinetic parameters can be found in Figure S14 and Table S1.
(§1) The main pharmacokinetic parameters were calculated using Phoenix WinNonlin 7.0 via a non-compartmental model (Pharsight, Mountain View, CA). […] Data were presented as mean ± SD.
Figure S12. 19F NMR (400 MHz, DMSO) of compound 7a: δ -56.89 ppm.
Figure S13. Mass spectrum of compound 7a (m/z 500.2).
Figure S14. Mean concentration-time curves of compound 7a after intravenous administration in rats (1 mg/kg).
Data were presented as mean ± SD, n=3.
Table S1. Main pharmacokinetics parameters of compound 7a after intravenous administration (mean ± SD, n=3).
T (h) C0 AUC0-t V (L/kg) Cl(L/h/kg) […]

[2] = Pharmacokinetic study in rats after oral administration; assay type: in vivo, Sprague-Dawley rats; conditions: for Cmax / Tmax / half-life / bioavailability / AUC(0-t): Sprague-Dawley, rat, plasma; for AUC(0-t): read-out: AUC0–24h
Description: Sprague-Dawley rats (8 weeks old, 180–220 g) were provided by Pengyue Laboratory Animal Technology Co., Ltd (Jinan, Shandong, China). All rats were fed adaptively for 1 week (20 °C–24 °C, 50%–70% relative humidity, 12/12 h light/dark cycle). A standard diet and boiled water were provided. The rats fasted for over 12h with free access to water before the study. Furthermore, 7a was dissolved DMSO (5%) and then diluted with saline. The rats were given 7a by gavage at 5 mg/kg and 30 mg/kg. In addition, 200 μL of blood was collected into a 1.5 mL tube added with heparin at 5 min, 15 min, 30 min, 1 h, 2 h, 4 h, 6 h, 8 h, 10 h, and 24 h after administration. Plasma was acquired by centrifugation (8000 rpm, 5 min) and all samples were immediately stored at −20 °C immediately. The guidelines of the Animal Ethics Committee of Luye Pharma Group Ltd. were strictly enforced during the animal experiments to ensure animal welfare.
as §1

[3] = assay type: in vitro ADME; conditions: incubation of 7a in rat liver microsomes with NADPH
Description: Liver microsomes were used to investigate the metabolism clearance of 7a. In addition, 5 µL of rat liver microsome (20 mg/mL), 2 µL of 7a or onvansertib (100 µM), and 173 µL of PBS buffer (0.1 M, pH 7.4) were added to 1.5 mL Eppendorf tubes. After pre-incubation for 10 min at 37 °C, the reaction was initiated by adding an NADPH-generating system (20 µL) into the microsomal suspension. A system without NADPH was set as a negative control. After incubations for 10 min, 30 min, or 60 min, 400 µL of ice acetonitrile was added to quench the reaction. The supernatants were injected into Q Exactive ™ combined quadrupole Orbitrap mass spectrometer (Thermo Scientific, Waltham, MA, USA) for metabolite profiling and identification. The concentration of the compound to be measured at 0 min was defined as 100%, and the concentration at other times was converted into a residual percentage.

[4] = Stability of 7a in rat plasma (QC samples, UHPLC-MS/MS); assay type: in vitro ADME
Description: QC samples were stored under different conditions, such as room temperature for 4 h, frozen-thawed for 3 cycles, frozen at −20 °C for 7 days, or stored in an auto-sampler for 24 h. The sample concentrations were calculated by the following calibration curve. The RE (%) and RSD (%) should be less than ±15%.

[5] = molecular target: T1, PLK1 kinase (Homo sapiens, UniProt P53350); test: PLK1 kinase inhibition activity; assay type: biochemical
T1 construct: purchased CarnaBio 05–157
Description: The compounds were diluted at a 1:3 ratio on a 384-well plate with the highest concentration of 1 μM, and a total of 10 concentration points were tested. The mixture of PLK1 kinase and peptide substrate (5 μL) was added to each well. […] The results were tested by EnVision and analyzed using XLFIT5 software.

[6] = test system: NCI-H2030 cells; test: Cell proliferation inhibition, NCI-H2030 (ATPlite); assay type: cell-based; conditions: Homo sapiens, 72 h incubation, read-out: NCI-H2030 IC50 (cell viability)
Description: (§2) HCT-116 or NCI-H2030 cells were seeded in 96-well plates at a density of 720/well and cultured overnight in a 5% CO2 incubator at 37 ± 1 °C. The compounds were diluted and added at a ratio of 1:3. After incubation for 72 h, ATPlite 1step Luminescence was added and incubated in the dark for 3 min, then was vortexed at 500 rpm for 2 min, and the luminous intensity was detected by the microplate reader and the cell inhibition was calculated as follows:Inhibition (%) = 100 − (Lum compound − Lum medium)/(Lum control − Lum medium) × 100%

[7] = test system: HCT-116 cells; test: Cell proliferation inhibition, HCT-116 (ATPlite); assay type: cell-based; conditions: Homo sapiens, 72 h incubation, read-out: HCT-116 IC50 (cell viability)
Description: as §2

[8] = assay type: in vitro ADME, human; conditions: for HLM (%) relative abundance (area ratio): incubation of 7a in human liver microsomes with NADPH
[9] = both sexes, oral 5 mg/kg, mean of male and female rats
[10] = both sexes, oral 30 mg/kg, mean of male and female rats
[11] = both sexes, oral, rats, doses 5–30 mg/kg, overall statement
[12] = autosampler 4 °C for 24 h, nominal 3 nM
[13] = autosampler 4 °C for 24 h, nominal 300 nM
[14] = autosampler 4 °C for 24 h, nominal 750 nM
[15] = rat plasma, freeze −20 °C for 7 days, nominal 3 nM
[16] = rat plasma, freeze −20 °C for 7 days, nominal 300 nM
[17] = rat plasma, freeze −20 °C for 7 days, nominal 750 nM
[18] = rat plasma, freeze-thaw for 3 cycles, nominal 3 nM
[19] = rat plasma, freeze-thaw for 3 cycles, nominal 300 nM
[20] = rat plasma, freeze-thaw for 3 cycles, nominal 750 nM
[21] = rat plasma, room temperature for 4 h, nominal 3 nM
[22] = rat plasma, room temperature for 4 h, nominal 300 nM
[23] = rat plasma, room temperature for 4 h, nominal 750 nM

T1 sequence (P53350 whole entry): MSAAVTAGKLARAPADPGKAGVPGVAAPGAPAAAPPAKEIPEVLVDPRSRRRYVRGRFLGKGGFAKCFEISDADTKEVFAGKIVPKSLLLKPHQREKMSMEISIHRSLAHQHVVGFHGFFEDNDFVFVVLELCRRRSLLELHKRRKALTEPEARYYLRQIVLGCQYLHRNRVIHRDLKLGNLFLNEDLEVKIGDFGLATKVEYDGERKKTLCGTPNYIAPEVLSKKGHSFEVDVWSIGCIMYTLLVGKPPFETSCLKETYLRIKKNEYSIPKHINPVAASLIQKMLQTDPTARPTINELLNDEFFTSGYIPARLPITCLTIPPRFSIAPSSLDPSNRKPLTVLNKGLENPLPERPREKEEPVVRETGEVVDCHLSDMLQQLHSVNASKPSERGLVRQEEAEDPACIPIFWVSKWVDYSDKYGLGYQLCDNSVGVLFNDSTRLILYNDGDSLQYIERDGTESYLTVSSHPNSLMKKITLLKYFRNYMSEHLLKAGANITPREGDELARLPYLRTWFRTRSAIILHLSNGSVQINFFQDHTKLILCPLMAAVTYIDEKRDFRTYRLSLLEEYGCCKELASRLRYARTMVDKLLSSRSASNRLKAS

In the case of CN1CCN(c2ccc(OC(F)(F)F)c(Nc3nccc(-c4cc5c(=O)[nH]ccc5n4C)n3)c2)CC1 [compound 7a, 1-methyl-2-(2-((5-(4-methylpiperazin-1-yl)-2-(trifluoromethoxy)phenyl)amino)pyrimidin-4-yl)-1,5-dihydro-4H-pyrrolo[3,2-c] pyridin-4-one], the AUC(0-t) [1] is reported as 0.472 ± 0.032 µM·h, the C0 [1] is reported as 481 ± 42 nM and the clearance [1] is reported as 70 mL/min/kg. It also gave a half-life [1] of 2.4 ± 0.6 h, a Vd ([1]; read-out: Vss) of 8.5 ± 1.3 L/kg and a Cmax ([2]; oral 5 mg/kg, female rats) of 102 ± 25 nM. The Tmax ([2]; oral 5 mg/kg, female rats) was 0.8 ± 1 h, the half-life ([2]; oral 5 mg/kg, female rats) was 4.6 ± 1.4 h and the bioavailability ([2]; oral 5 mg/kg, female rats, read-out: F) was 19.9%. For the same compound, the Cmax ([2]; oral 5 mg/kg, male rats) was 87 ± 45 nM, the Tmax ([2]; oral 5 mg/kg, male rats) was 3 ± 2.6 h and the half-life ([2]; oral 5 mg/kg, male rats) was 4.4 ± 0.9 h. The bioavailability ([2]; oral 5 mg/kg, male rats, read-out: F) was 23.9%, the Cmax ([2]; oral 30 mg/kg, female rats) was 428 ± 90 nM and the Tmax ([2]; oral 30 mg/kg, female rats) was 2.3 ± 1.5 h. For the same compound, the half-life ([2]; oral 30 mg/kg, female rats) was 6.1 ± 0.9 h, the bioavailability ([2]; oral 30 mg/kg, female rats, read-out: F) was 22.3% and the Cmax ([2]; oral 30 mg/kg, male rats) was 435 ± 81 nM. It also gave a Tmax ([2]; oral 30 mg/kg, male rats) of 2 ± 1.9 h, a half-life ([2]; oral 30 mg/kg, male rats) of 3.7 ± 1.3 h and a bioavailability ([2]; oral 30 mg/kg, male rats, read-out: F) of 22.7%. For the same compound, the AUC(0-t) ([2]; both sexes, po, 5 mg/kg, oral 5 mg/kg, mean of male and female rats) was roughly 0.517 µM·h, the AUC(0-t) ([2]; both sexes, po, 30 mg/kg, oral 30 mg/kg, mean of male and female rats) was roughly 3.19 µM·h and the bioavailability ([2]; both sexes, po, rats, overall statement, read-out: oral bioavailability (F)) was roughly 22%. For the same compound, the Cmax [2, 9] was 95 ± 33 nM, the Tmax [2, 9] was 1.9 ± 2.1 h and the half-life [2, 9] was 4.5 ± 1.1 h. For the same compound, the bioavailability ([2]; both sexes, oral 5 mg/kg, mean of male and female rats, read-out: F) was 21.9%, the Cmax [2, 10] was 432 ± 77 nM and the Tmax [2, 10] was 2.2 ± 1.6 h. It also gave a half-life [2, 10] of 5.1 ± 1.6 h, a bioavailability ([2]; both sexes, oral 30 mg/kg, mean of male and female rats, read-out: F) of 22.5% and a Tmax [2, 11] of roughly 2 h. The half-life [2, 11] was 5 h, the AUC(0-t) ([2]; female, po, 5 mg/kg, oral 5 mg/kg, female rats) was 0.469 ± 0.064 µM·h and the AUC(0-t) ([2]; female, po, 30 mg/kg, oral 30 mg/kg, female rats) was 3.16 ± 1.02 µM·h. For the same compound, the AUC(0-t) ([2]; male, po, 5 mg/kg, oral 5 mg/kg, male rats) was 0.565 ± 0.132 µM·h, the AUC(0-t) ([2]; male, po, 30 mg/kg, oral 30 mg/kg, male rats) was 3.22 ± 1.04 µM·h and the “AUC0–24h” value ([2]; oral 30 mg/kg, mean of male and female rats, 30 mg/kg) was 3.192 ± 0.922 µM·h. The “RLM (%) relative abundance (area ratio)” value [3] was 5.34%, the “Measured Concentrations” value [4, 12] was 3.05 ± 0.10 nM and the “RE (stability)” value [4, 12] was 1.78%. For the same compound, the “Measured Concentrations” value [4, 13] was 280 ± 11.9 nM, the “RE (stability)” value [4, 13] was −6.67% and the “Measured Concentrations” value [4, 14] was 701 ± 46.5 nM. The “RE (stability)” value [4, 14] was −6.58%, the “Measured Concentrations” value [4, 15] was 2.55 ± 0.13 nM and the “RE (stability)” value [4, 15] was −14.9%. For the same compound, the “Measured Concentrations” value [4, 16] was 272 ± 9.67 nM, the “RE (stability)” value [4, 16] was −9.33% and the “Measured Concentrations” value [4, 17] was 685 ± 34.7 nM. The “RE (stability)” value [4, 17] was −8.71%, the “Measured Concentrations” value [4, 18] was 2.73 ± 0.21 nM and the “RE (stability)” value [4, 18] was −9.17%. The “Measured Concentrations” value [4, 19] was 260 ± 10.8 nM, the “RE (stability)” value [4, 19] was −13.4% and the “Measured Concentrations” value [4, 20] was 649 ± 24.2 nM. For the same compound, the “RE (stability)” value [4, 20] was −13.5%, the “Measured Concentrations” value [4, 21] was 2.59 ± 0.17 nM and the “RE (stability)” value [4, 21] was −13.7%. For the same compound, the “Measured Concentrations” value [4, 22] was 261 ± 4.94 nM, the “RE (stability)” value [4, 22] was −13% and the “Measured Concentrations” value [4, 23] was 649 ± 17.9 nM. The “RE (stability)” value [4, 23] was −13.4%, the IC50 [5] was 0.89 nM and the “PLK-1 activity and cytotoxicity, times higher than compound 25” value ([5]; relative to compound 25) was “more than 4 times”. For the same compound, the IC50 [6] was 38.5 nM, the IC50 [7] was 30.6 nM and the “stability of the parent in HLM” value ([8]; human liver microsomes) was “stable”. For the same compound, the “HLM (%) relative abundance (area ratio)” value [8] was 43.73%.

In the case of Cn1c(-c2ccnc(Nc3cc(N4CCNCC4)ccc3OC(F)(F)F)n2)cc2c(=O)[nH]ccc21 [M2], the “RLM (%) relative abundance (area ratio)” value [3] is reported as 6.53% and the “HLM (%) relative abundance (area ratio)” value [8] is reported as 34.76%.

Compound CN1CCN(c2ccc(OC(F)(F)F)c(Nc3nccc(-c4cc5c(n4C)CCNC5=O)n3)c2)CC1 [compound 25, reference compound] has an IC50 ([5]; read-out: PLK1 inhibition IC50) of 4.07 nM, an IC50 [6] of 74.7 nM and an IC50 [7] of 62.8 nM.
